ChEMBL document CHEMBL5120923, “Tamarixetin Attenuated the Virulence of Staphylococcus aureus by Directly Targeting Caseinolytic Protease P” (J Nat Prod, 2022)

How the values were obtained:
Staphylococcus aureus [1] = test: Inhibition of Hla protein expression in methicillin-resistant Staphylococcus aureus Newman at 4 to 64 ug/ml incubated for overnight by western blot analysis; type: functional; details: dose 4-64 µg/ml, DDE = dose-dependent effect
Staphylococcus aureus [2] = test: Inhibition of Hla protein expression in methicillin-resistant Staphylococcus aureus USA300 at 4 to 64 ug/ml incubated for overnight by western blot analysis; type: functional; details: dose 4-64 µg/ml, DDE = dose-dependent effect

COc1ccc(-c2oc3cc(O)cc(O)c3c(=O)c2O)cc1O [TAMARIXETIN]
inhibition (Staphylococcus aureus [1]): Dde
inhibition (Staphylococcus aureus [2]): Dde
